Measurements from US7709002B1, “Mutated ras peptides for generation of CD8+Cytotoxic T lymphocytes” (The United States of America as represented by the …, priority 1996, dated 2010).
Like-named read-outs stand apart in the source and are kept apart here. Values belong to the compound of their own block, whether it stands above or below them. Where no end group is shown, it is not given here.

Key:
[1] = system: peptide-pulsed autologous EBV-B cells; format: cell-based, human
Description: (§1) Cytotoxic response. Cytotoxicity was examined by a conventional ^51Cr-release assay, as described (6). Briefly, target cells (i.e. T2, C1R-A2, BLCL, K562) were radiolabeled with 200 μCi of Na2[^51Cr]04 (Amersham) for 60 minutes at 37° C., followed by thorough washing to remove unincorporated isotope. Effectors and targets (1×10^4/well) were incubated in 96-well, U-bottomed plates (Costar) at various effector target (E/T) ratios in the absence and presence of peptide (+/−monoclonal antibody (MAb) directed against CD4, CD8 or HLA-A2 molecules (clone BB7.2 from ATCC)) for up to 6 hours. After incubation, supernatants were collected using a Supernatant Collection System (Skatron, Sterling, Va.) and radioactivity measured in a γ-counter (Packard Instruments, Downers Grove, Ill.). Cytotoxic activity was defined as percent specific release of ^51Cr and determined by the equation: [(experimentalcpm−spontaneouscpm)/maximumcpm−spontaneouscpm)]×100. Results were expressed as the mean±SEM of triplicate cultures. The C1R-A2 line is a BLCL transfected with the HLA-A2 gene (obtained from Dr. P. Creswell, Yale University) (Storkus et al, 1987 J. Immunol. 138:1657-1659), and K562 is an erythroleukemia cell line (ATCC, Rockville, Md.) used to measure NK activity.

[2] = system: SW480 colon carcinoma cell line (HLA-A2+, rasVal12+); experiment: 51Cr-release cytotoxicity of CTL against SW480 colon carcinoma cells; format: cell-based, human; conditions: IFN-γ 250 U/ml for 24 hr; no lysis without pretreatment (FIG. 10A)
Description: (§2) FIGS. 10A and 10B. Anti-ras Val12-specific CTL from patient 29 lyse SW480 tumor targets in the absence of exogenous peptide. FIG. 10A: Anti-ras Val12-specific CD8^+ CTL from patient 29 were assayed against the SW480 colon carcinoma cell line (HLA-A2^+, rasVal12+) in the absence of exogenous peptide, with or without IFN-γ pretreatment (250 U/ml for 24 hr) of the target cells. CD8^+ CTL reactive with the […] peptide were used as an irrelevant effector cell population. Cytotoxicity was determined by ^51Cr-release, and the results expressed at different effector/target ratios. FIG. 10B: In parallel to 10A, anti-ras or anti-MART-1-specific CTL were assayed against SW480 (±IFN-γ pretreatment) at an effector/target ratio of 10/1 in the absence or presence of exogenous peptide (5 μg/ml). […] Flow cytometric analysis of SW480 cells for expression of HLA-A2: untreated=65.4% with MFI of 29.8; IFN-γ-pretreated=99.5% with MFI of 349.6. Flow cytometric analysis of SW480 cells for expression of ICAM-1: untreated=16.0% with MFI of 30.3; IFN-γ-pretreated=98.6% with MFI of 181.9.
(§3) Cytotoxic response. Cytotoxicity was examined by a conventional ^51Cr-release assay, as described (6). […] After incubation, supernatants were collected using a Supernatant Collection System (Skatron, Sterling, Va.) and radioactivity measured in a γ-counter (Packard Instruments, Downers Grove, Ill.). Cytotoxic activity was defined as percent specific release of ^51Cr and determined by the equation: [(experimentalcpm−spontaneouscpm)/maximumcpm−spontaneouscpm)]×100. Results were expressed as the mean±SEM of triplicate cultures. […]
Studies were also carried out to determine whether such peptide-induced CD8^+ CTL could recognize a processed form of the corresponding mutant ras protein. […] In contrast to the CD4^+ analysis, which measured lymphoproliferation to soluble protein, the CD8^+ CTL analysis reflected lytic ability against SW480 cells harboring the naturally-occurring mutation in the absence of exogenously added peptide. […]

SW480 cells = experiment: Flow cytometric analysis of SW480 cells for HLA-A2 and ICAM-1 after IFN-γ pretreatment; format: cell-based, human
Description: as §2
Isolation and preparation of peripheral blood mononuclear cells (PBMC). PBMC were isolated from 50 ml of heparinized whole blood by Ficoll-Hypaque density gradient centrifugation (Lymphocyte Separation Medium; Organon-Teknika, Durham, N.C.) prior to the first vaccination and four weeks after each vaccination. After isolation at each interval, PBMC were cryopreserved under liquid nitrogen in a sterile cocktail of 90% heat-inactivated, pooled human AB serum (Valley Biomedical, Winchester, Va.) and 10% dimethyl sulfoxide (DMSO) (Sigma Chemical Co., St. Louis, Mo.). Basic cellular immune responses to mitogens and antigens were first determined using freshly-thawed, unfractionated PBMC, derived pre-vaccination and post-third vaccination. For all functional assays and cell culture preparation, PBMC were suspended in a RPMI-1640 based-medium, supplemented with 15 mM HEPES buffer (pH 7.4), 2 mM L-glutamine, 0.1 mM non-essential amino acids, 1 mM sodium pyruvate, 50 μM β-mercaptoethanol, 50 μg/ml gentamicin (all from GIBCO/BRL, Gaithersburg, Md.) and 10% heat-inactivated human AB serum (Valley Biomedical). Cell surface phenotype of resting and activated lymphocyte cultures was analyzed by direct immunofluorescence. Cells were treated with the appropriate primary monoclonal antibody (MAb) conjugated to fluorescein isothiocyanate (FITC) (from Pharmingen, San Diego, Calif. or Becton Dickinson, Mountain View, Calif.), fixed with 1% paraformaldehyde and evaluated by flow cytometry using a FACScan (Becton Dickinson) for the percentage of positive cells and mean fluorescent intensity (MFI).

[3] = system: C1R-A2 cell line as target of CD8+ CTL line of RAS patient 32; experiment: 51Cr-release cytotoxicity of CD8+ CTL line of RAS patient 32 against peptide-pulsed C1R-A2 targets; format: cell-based, human; conditions: for % Specific Lysis: E/T 20/1, 6 hr
Description: (§4) IVS cycles for evaluation of CD8^+ T cell responses from HLA-A2+Patients. Freshly-thawed PBMC (from ras patients 32 and 33), derived pre-vaccination and post-third vaccination, were enriched in T lymphocytes by passage over nylon wool columns (Robbins Scientific, Sunnyvale, Calif.) and then depleted of CD4^+ T cells by negative selection via panning on anti-CD4 MAb-coated T25 flasks (Applied Immune Sciences, Santa Clara, Calif.). For the first IVS cycle, CD8^+ enriched lymphocytes (5×10^5/well) were cultured in 24-well plates with irradiated, autologous PBMC (5×10^6/well) as APC which had been preincubated for 3 hours with the appropriate mutant ras peptide ([…]) plus human β2-microglobulin (10 μg/ml) (Calbiochem, San Diego, Calif.). […] IL-2 (10 U/ml) was added 3 days later. After an additional 7 days, viable cells (2-5×10^5/well) were re-cultured by weekly stimulation with APC pre-pulsed with peptide/β2-microglobulin, and IL-2 added one day later. After the third or fourth IVS cycle, autologous PBMC were replaced with EBV-transformed, autologous BLCL (5×10^5/well) as APC. […] CTL activity was evaluated from cultures 5 to 6 days after Ag restimulation.
as §1

[4] = system: T2 cell line as target of CD8+ CTL line of RAS patient 32; experiment: 51Cr-release cytotoxicity of CD8+ CTL line of RAS patient 32 against peptide-pulsed T2 targets; format: cell-based, human; conditions: peptide 10 μg/ml, IVS cycle 7 (FIG. 5)
Description: FIG. 5. Cytolytic activity by CD8^+ CTL line of RAS patient 32 is peptide-specific. The CD8^+ CTL line of RAS patient 32 (see FIG. 3) was assayed against the T2 cell line as a target, incubated with and without different ras peptides (10 μg/ml), as shown. In parallel, the extent of NK activity was evaluated against K562 cells. Cytotoxicity was determined by ^51Cr-release, and the results expressed at different E/T ratios following IVS cycle 7. Similar results were observed using the second, independently-derived CD8^+ CTL line as described in Table 6.
as §4
as §1, with “The C1R-A2 line is a BLCL transfected with the HLA-A2 gene (obtained from Dr. P. Creswell, Yale University) (Storkus et al, 1987 J. Immunol. 138:1657-1659), and K562 is an erythroleukemia cell line (ATCC, Rockville, Md.) used to measure NK activity.” left out

[5] = system: C1R-A2 targets / autologous EBV-B cells as targets of CD8+ CTL line of patient 29; experiment: 51Cr-release cytotoxicity of CD8+ CTL line of patient 29 against C1R-A2 or autologous EBV-B targets; format: cell-based, human; conditions: autologous EBV-B targets, IVS cycle 11, effector/target ratio 10/1 (FIG. 9B)
Description: FIGS. 9A and 9B. Production of a peptide-specific CD8^+ T cell line from post-vaccinated lymphocytes of patient 29. FIG. 9A: A CD8^+ CTL line was established from post-vaccinated PBMC of patient 29 and assayed for peptide specificity against C1R-A2 targets. Cytotoxicity was determined by ^51Cr-release, and the results expressed at different effector/target ratios following IVS cycle 7. FIG. 9B: Using this CD8^+ CTL line, the requirement for HLA-A2 in peptide presentation (by autologous EBV-B cells as targets) was determined in blocking experiments using MAb (clone BB7.2; ascites=1:30 dilution) directed against that molecule (or using an isotype-matched MAb). […] CD4 and CD8 MAbs were as described for FIGS. 8A and 8b. Control lysis in the absence of peptide or in the presence of ras5-14(Gly12) was <3%.
as §3

human HLA-A2 = molecular target: T1, human HLA-A2 (Homo sapiens, UniProt P04439, D140Y/D185E/D98H/E176V/E277Q/G131W/G231S/I119V/I121R/I166T/I218V/L300P/L318F/N151K/N90K/P208A/P217A/Q86G/Q94H/R138H/R169H/T345S); experiment: HLA-A2 binding bioassay on T2 cells (flow cytometry); conditions: for Immunostaining of T2 cells with Isotype control MAb: no peptide = 84.0
T1 construct: The 174CEM.T2 cell line (“T2”), (transport deletion mutant); endogenous in cells; host or cells: 174CEM.T2 (T2) human cell line

[6] = Post-Immune CD8+ culture, IVS cycle 6, 10-mer peptide 10 μg/ml
[7] = Post-Immune CD8+ culture, IVS cycle 7, 10-mer peptide 10 μg/ml
[8] = Post-Immune CD8+ culture, IVS cycle 8, 10-mer peptide 10 μg/ml
[9] = Post-Immune CD8+ culture, IVS cycle 9, 10-mer peptide 10 μg/ml
[10] = Pre-Immune CD8+ culture, IVS cycle 6, 10-mer peptide 10 μg/ml
[11] = Pre-Immune CD8+ culture, IVS cycle 7, 10-mer peptide 10 μg/ml
[12] = peptide 50 μg/ml + β2-microglobulin 3 μg/ml, overnight 37° C., serum-free

Compound: CC(C)C[C@H](NC(=O)[C@@H](N)CCCCN)C(=O)N[C@H](C(=O)N[C@H](C(=O)N[C@H](C(=O)NCC(=O)N[C@@H](C)C(=O)N[C@@H](CS)C(=O)NCC(=O)N[C@H](C(=O)NCC(=O)N[C@@H](CCCCN)C(=O)N[C@@H](CO)C(=O)O)C(C)C)C(C)C)C(C)C)C(C)C [ras5-17(Cys12)]
Specific cytotoxic response of CD4+ T cell line ([1]; CD4+ T cell line of patient 43): no specific cytotoxic response was detected

Compound: IFN-γ: interferon gamma used to pretreat SW480 target cells
Lysis of SW480 by anti-rasVal12 CTL after pretreatment of targets, no exogenous peptide [2]: demonstrable cytotoxicity was observed at multiple effector/target ratios
SW480 cells positive for HLA-A2 (SW480 cells; IFN-γ-pretreated (250 U/ml, 24 hr), untreated 65.4%): 99.5%
SW480 cells positive for ICAM-1 (SW480 cells; IFN-γ-pretreated, untreated 16.0%): 98.6%
HLA-A2 expression on SW480 (SW480 cells; IFN-γ-pretreated, untreated 29.8): 349.6 MFI
ICAM-1 expression on SW480 (SW480 cells; IFN-γ-pretreated, untreated 30.3): 181.9 MFI

Compound: CC(C)C[C@H](NC(=O)[C@@H](N)CCCCN)C(=O)N[C@H](C(=O)N[C@H](C(=O)N[C@H](C(=O)NCC(=O)N[C@@H](C)C(=O)N[C@H](C(=O)NCC(=O)N[C@H](C(=O)NCC(=O)N[C@@H](CCCCN)C(=O)N[C@@H](CO)C(=O)O)C(C)C)C(C)C)C(C)C)C(C)C)C(C)C [ras5-17(Val12)]
Specific cytotoxic response of CD4+ T cell line ([1]; CD4+ T cell line of patient 29): did not display specific cytotoxicity

Compound: ras5-14(Gly12): wild-type ras 10-mer peptide positions 5-14 with Gly at position 12 (KLVVVGAGGV)
Control lysis ([3]; IVS cycle 16, effector/target ratio 10/1 (FIG. 7)): < 3%
% Specific Lysis [3, 6]: 8 ± 0%
% Specific Lysis [3, 7]: 8 ± 1%
% Specific Lysis [3, 8]: 10 ± 1%
% Specific Lysis [3, 9]: 21 ± 2%
% Specific Lysis [3, 10]: 10 ± 1%
% Specific Lysis [3, 11]: 0%
Sensitization of T2 targets for lysis (in words) [4]: failed to stimulate lysis
Control lysis [5]: < 3%
Immunostaining of T2 cells with Isotype control MAb (human HLA-A2; [12]): 41.3 MFI

Compound: YLVVVGADGV [Tyr variant]
Shift in dose-response of target sensitization for lysis vs native peptide, based on half-maximal activity ([3]; anti-ras5-14(Asp12) CTL line, E/T 10/1 (FIG. 11)): three-fold
Binding activity to HLA-A2 on T2 cells relative to native ras5-14(Asp12) sequence (human HLA-A2; less dependency for exogenous β2-macroglobulin): higher binding activity than did the native peptide sequence

Immunostaining of T2 cells with Isotype control MAb (human HLA-A2; [12]): 48.4 MFI
Immunostaining of T2 cells with MAb against HLA-A2 (human HLA-A2; peptide 50 μg/ml + β2-microglobulin 3 μg/ml, overnight 37° C., serum-free, no peptide = 137.9): 679.5 MFI
Immunostaining of T2 cells with Pan Class I MAb (W6/32) (human HLA-A2; peptide 50 μg/ml + β2-microglobulin 3 μg/ml, overnight 37° C., serum-free, no peptide = 230.4): 991.2 MFI
Compound: CEA571-579: 9 amino acid peptide, HLA-A2-restricted CEA-specific CD8+ CTL epitope, positive control for HLA-A2 binding (CGIQNSVSA; UniProt P06731 571-579, looked up, fragment)

Compound: Lys-Leu-Val-Val-Val-Gly-Ala-Asp-Gly-Val [ras5-14(Asp12)]
% Specific Lysis [3, 6]: 24 ± 2%
% Specific Lysis [3, 7]: 26 ± 2%
% Specific Lysis [3, 8]: 67 ± 2%
% Specific Lysis [3, 9]: 68 ± 4%
% Specific Lysis [3, 10]: 14 ± 0%
% Specific Lysis [3, 11]: 0%
Sensitization of T2 targets for lysis (in words) [4]: sensitized the T2 cell line for lysis
